Test results from the NIST ThermoML archive (doi:10.1016/j.fluid.2008.09.004).

Key:
[1] = excess molar enthalpy (molar enthalpy of mixing); xn = mol fraction of the nth substance listed; conditions: 303.15 K, 101 kPa, Liquid, Calvet calorimetry
[2] = molar heat capacity at constant pressure; xn = mol fraction of the nth substance listed; conditions: 101 kPa, Liquid, Small sample (50 mg) DSC
[3] = xn = mol fraction of the nth substance listed; conditions: 101 kPa, Liquid, Vibrating tube method

CCn1cc[n+](C)c1.O=S(=O)([O-])C(F)(F)F [1-ethyl-3-methylimidazolium trifluoromethanesulfonate] + CCO
[1]
Conditions	excess molar enthalpy [kcal/mol]
x1 = 0.1271	0.291
x1 = 0.2489	0.411
x1 = 0.3752	0.449
x1 = 0.5006	0.424
x1 = 0.6176	0.363
x1 = 0.7501	0.26
x1 = 0.869	0.143

Conditions	mass density, [3] [kg/m3]	molar heat capacity at constant pressure, [2] [J/K/mol]
293.15 K, x1 = 0.0523	883.9	125.1
293.15 K, x1 = 0.1	953	138.9
293.15 K, x1 = 0.1959	1059.7	164.1
293.15 K, x1 = 0.2927	1138.5	188.3
293.15 K, x1 = 0.3819	1194.5	209.7
293.15 K, x1 = 0.4917	1248.4	236
293.15 K, x1 = 0.5983	1289.4	261.7
293.15 K, x1 = 0.6899	1318.8	283.9
293.15 K, x1 = 0.7829	1343.7	306.8
293.15 K, x1 = 0.8784	1365.6	330.5
298.15 K, x1 = 0.0523	879.6	126.8
298.15 K, x1 = 0.1	948.7	140.4
298.15 K, x1 = 0.1959	1055.4	165.4
298.15 K, x1 = 0.2927	1134.1	189.5
298.15 K, x1 = 0.3819	1190.2	211
298.15 K, x1 = 0.4917	1244.1	237.4
298.15 K, x1 = 0.5983	1285.1	263.3
298.15 K, x1 = 0.6899	1314.5	285.4
298.15 K, x1 = 0.7829	1339.4	308.5
298.15 K, x1 = 0.8784	1361.4	332.5
303.15 K, x1 = 0.0523	875.3	128.4
303.15 K, x1 = 0.1	944.4	142
303.15 K, x1 = 0.1959	1051.1	166.7
303.15 K, x1 = 0.2927	1129.8	190.7
303.15 K, x1 = 0.3819	1185.9	212.3
303.15 K, x1 = 0.4917	1239.9	238.8
303.15 K, x1 = 0.5983	1280.9	264.9
303.15 K, x1 = 0.6899	1310.3	286.9
303.15 K, x1 = 0.7829	1335.2	310.3
303.15 K, x1 = 0.8784	1357.2	334.5
308.15 K, x1 = 0.0523	871	130.3
308.15 K, x1 = 0.1	940.2	143.8
308.15 K, x1 = 0.1959	1046.8	168.1
308.15 K, x1 = 0.2927	1125.6	192.1
308.15 K, x1 = 0.3819	1181.6	213.8
308.15 K, x1 = 0.4917	1235.6	240.4
308.15 K, x1 = 0.5983	1276.7	266.5
308.15 K, x1 = 0.6899	1306.1	288.5
308.15 K, x1 = 0.7829	1331	312.2
308.15 K, x1 = 0.8784	1353	336.6
313.15 K, x1 = 0.0523	866.7	132.2
313.15 K, x1 = 0.1	935.8	145.5
313.15 K, x1 = 0.1959	1042.5	169.5
313.15 K, x1 = 0.2927	1121.3	193.5
313.15 K, x1 = 0.3819	1177.3	215.2
313.15 K, x1 = 0.4917	1231.4	241.9
313.15 K, x1 = 0.5983	1272.4	268.2
313.15 K, x1 = 0.6899	1301.9	290.1
313.15 K, x1 = 0.7829	1326.8	314.1
313.15 K, x1 = 0.8784	1348.8	338.7
318.15 K, x1 = 0.0523	862.2	134.2
318.15 K, x1 = 0.1	931.4	147.4
318.15 K, x1 = 0.1959	1038.1	171.1
318.15 K, x1 = 0.2927	1116.9	195
318.15 K, x1 = 0.3819	1173	216.9
318.15 K, x1 = 0.4917	1227.1	243.6
318.15 K, x1 = 0.5983	1268.2	270
318.15 K, x1 = 0.6899	1297.7	291.9
318.15 K, x1 = 0.7829	1322.6	316.1
318.15 K, x1 = 0.8784	1344.7	340.9

CCCCCCn1cc[n+](C)c1.F[B-](F)(F)F [1-hexyl-3-methylimidazolium tetrafluoroborate] + CCO
[1]
Conditions	excess molar enthalpy [kcal/mol]
x1 = 0.101	0.322
x1 = 0.2037	0.489
x1 = 0.3018	0.576
x1 = 0.3977	0.614
x1 = 0.4988	0.592
x1 = 0.6045	0.522
x1 = 0.6901	0.443
x1 = 0.7932	0.314
x1 = 0.8733	0.203

Conditions	mass density, [3] [kg/m3]	molar heat capacity at constant pressure, [2] [J/K/mol]
293.15 K, x1 = 0.1052	904.3	152
293.15 K, x1 = 0.2011	969.7	184.5
293.15 K, x1 = 0.2832	1009.1	209.9
293.15 K, x1 = 0.3846	1045.5	240.4
293.15 K, x1 = 0.4943	1075.1	272.3
293.15 K, x1 = 0.5486	1086.6	288
293.15 K, x1 = 0.6882	1111.6	328.8
293.15 K, x1 = 0.7748	1124	–
293.15 K, x1 = 0.7879	–	358.6
293.15 K, x1 = 0.7988	1127.1	–
293.15 K, x1 = 0.8521	1133.6	–
293.15 K, x1 = 0.8791	–	387.1
298.15 K, x1 = 0.1052	900.2	153.6
298.15 K, x1 = 0.2011	965.8	185.9
298.15 K, x1 = 0.2832	1005.2	211.4
298.15 K, x1 = 0.3846	1041.7	241.8
298.15 K, x1 = 0.4943	1071.4	273.8
298.15 K, x1 = 0.5486	1082.9	289.7
298.15 K, x1 = 0.6882	1108	330.9
298.15 K, x1 = 0.7748	1120.5	–
298.15 K, x1 = 0.7879	–	360.8
298.15 K, x1 = 0.7988	1123.6	–
298.15 K, x1 = 0.8521	1130.1	–
298.15 K, x1 = 0.8791	–	389.4
303.15 K, x1 = 0.1052	896.2	155
303.15 K, x1 = 0.2011	961.8	187.3
303.15 K, x1 = 0.2832	1001.4	212.8
303.15 K, x1 = 0.3846	1037.9	243
303.15 K, x1 = 0.4943	1067.7	275.2
303.15 K, x1 = 0.5486	1079.3	291.3
303.15 K, x1 = 0.6882	1104.4	332.9
303.15 K, x1 = 0.7748	1117	–
303.15 K, x1 = 0.7879	–	363
303.15 K, x1 = 0.7988	1120.1	–
303.15 K, x1 = 0.8521	1126.6	–
303.15 K, x1 = 0.8791	–	391.6
308.15 K, x1 = 0.1052	892.1	156.6
308.15 K, x1 = 0.2011	957.9	188.6
308.15 K, x1 = 0.2832	997.6	214.1
308.15 K, x1 = 0.3846	1034.2	244.4
308.15 K, x1 = 0.4943	1064	276.7
308.15 K, x1 = 0.5486	1075.6	293
308.15 K, x1 = 0.6882	1100.9	334.9
308.15 K, x1 = 0.7748	1113.5	–
308.15 K, x1 = 0.7879	–	365
308.15 K, x1 = 0.7988	1116.6	–
308.15 K, x1 = 0.8521	1123.1	–
308.15 K, x1 = 0.8791	–	393.9
313.15 K, x1 = 0.1052	888	158.1
313.15 K, x1 = 0.2011	954	189.9
313.15 K, x1 = 0.2832	993.7	215.4
313.15 K, x1 = 0.3846	1030.4	245.7
313.15 K, x1 = 0.4943	1060.4	278.1
313.15 K, x1 = 0.5486	1072	294.6
313.15 K, x1 = 0.6882	1097.4	336.9
313.15 K, x1 = 0.7748	1110	–
313.15 K, x1 = 0.7879	–	367.1
313.15 K, x1 = 0.7988	1113.1	–
313.15 K, x1 = 0.8521	1119.7	–
313.15 K, x1 = 0.8791	–	396.1
318.15 K, x1 = 0.1052	883.9	159.8
318.15 K, x1 = 0.2011	950	191.2
318.15 K, x1 = 0.2832	989.8	216.7
318.15 K, x1 = 0.3846	1026.7	247.1
318.15 K, x1 = 0.4943	1056.7	279.6
318.15 K, x1 = 0.5486	1068.4	296.2
318.15 K, x1 = 0.6882	1093.8	338.9
318.15 K, x1 = 0.7748	1106.5	–
318.15 K, x1 = 0.7879	–	369
318.15 K, x1 = 0.7988	1109.6	–
318.15 K, x1 = 0.8521	1116.2	–
318.15 K, x1 = 0.8791	–	398.3
